In PubChem BioAssay (NCI):
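Protocol summary: plate cells (96-well), add compound at 5 concentrations, incubate 48 h, interpolate endpoints linearly. TGI marks complete inhibition of growth.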

Tests used:
Assay in all cases: inhibition of tumour cell growth, NCI panel, 48 h
HT29 colon = system: HT29 colon
UO-31 renal = system: UO-31 renal
786-0 renal = system: 786-0 renal
NCI-H460 lung = system: NCI-H460 lung
ACHN renal = system: ACHN renal
SK-MEL-28 melanoma = system: SK-MEL-28 melanoma
MOLT-4 leukemia = system: MOLT-4 leukemia
UACC-257 melanoma = system: UACC-257 melanoma
EKVX NSCLC = system: EKVX NSCLC
OVCAR-3 ovarian = system: OVCAR-3 ovarian
SN12C renal = system: SN12C renal
HCC-2998 colon = system: HCC-2998 colon
K-562 leukemia = system: K-562 leukemia
M14 melanoma = system: M14 melanoma

Cc1ccc(S(=O)(=O)N/N=C2\CC3CC4CCC2C4C3)cc1 (stereo unspecified)
TGI (HT29 colon): > 100 µM | TGI (UO-31 renal): > 100 µM | TGI (786-0 renal): > 100 µM | TGI (NCI-H460 lung): > 100 µM | TGI (ACHN renal): > 100 µM | TGI (SK-MEL-28 melanoma): > 100 µM | TGI (MOLT-4 leukemia): > 100 µM | TGI (UACC-257 melanoma): > 100 µM | TGI (EKVX NSCLC): > 100 µM | TGI (OVCAR-3 ovarian): > 100 µM | TGI (SN12C renal): > 100 µM | TGI (HCC-2998 colon): > 100 µM | TGI (K-562 leukemia): > 100 µM | TGI (M14 melanoma): > 100 µM

CN(C)CCNC(=O)c1cccc2nc3c(C(=O)NCCN(C)C)cccc3nc12
TGI (HT29 colon): 3.49 µM | TGI (UO-31 renal): 34.1 µM | TGI (786-0 renal): 9.88 µM | TGI (NCI-H460 lung): 7.91 µM | TGI (ACHN renal): 22.3 µM | TGI (SK-MEL-28 melanoma): 4.64 µM | TGI (MOLT-4 leukemia): 14.7 µM | TGI (UACC-257 melanoma): 4.08 µM | TGI (EKVX NSCLC): 3.76 µM | TGI (OVCAR-3 ovarian): 8.67 µM | TGI (SN12C renal): 5.58 µM | TGI (HCC-2998 colon): 4.12 µM | TGI (K-562 leukemia): 12.5 µM | TGI (M14 melanoma): 3.13 µM

CCSc1nc(=S)n(-c2ccccc2)c(C)c1C(C)=O
TGI (HT29 colon): > 100 µM | TGI (UO-31 renal): > 100 µM | TGI (786-0 renal): > 100 µM | TGI (NCI-H460 lung): > 100 µM | TGI (ACHN renal): > 100 µM | TGI (SK-MEL-28 melanoma): > 100 µM | TGI (MOLT-4 leukemia): > 100 µM | TGI (UACC-257 melanoma): > 100 µM | TGI (EKVX NSCLC): > 100 µM | TGI (OVCAR-3 ovarian): > 100 µM | TGI (SN12C renal): > 100 µM | TGI (HCC-2998 colon): > 100 µM | TGI (K-562 leukemia): > 100 µM | TGI (M14 melanoma): > 100 µM

CCOC(=O)C(Cc1ccccc1)NC(=O)c1[nH]cnc1/N=N/N(C)C (stereo unspecified)
TGI (HT29 colon): > 100 µM | TGI (UO-31 renal): > 100 µM | TGI (786-0 renal): > 100 µM | TGI (NCI-H460 lung): > 100 µM | TGI (ACHN renal): > 100 µM | TGI (SK-MEL-28 melanoma): > 100 µM | TGI (MOLT-4 leukemia): > 100 µM | TGI (UACC-257 melanoma): > 100 µM | TGI (EKVX NSCLC): > 100 µM | TGI (OVCAR-3 ovarian): > 100 µM | TGI (SN12C renal): > 100 µM | TGI (HCC-2998 colon): > 100 µM | TGI (K-562 leukemia): > 100 µM | TGI (M14 melanoma): > 100 µM

CC(C)(C)NC(=O)/C(=C\Sc1ccccc1)c1ccccc1
TGI (HT29 colon): > 100 µM | TGI (UO-31 renal): > 100 µM | TGI (786-0 renal): > 100 µM | TGI (NCI-H460 lung): > 100 µM | TGI (ACHN renal): > 100 µM | TGI (SK-MEL-28 melanoma): > 100 µM | TGI (MOLT-4 leukemia): > 100 µM | TGI (UACC-257 melanoma): > 100 µM | TGI (EKVX NSCLC): > 100 µM | TGI (OVCAR-3 ovarian): > 100 µM | TGI (SN12C renal): > 100 µM | TGI (HCC-2998 colon): > 100 µM | TGI (K-562 leukemia): > 100 µM | TGI (M14 melanoma): > 100 µM

CCOC1NC(=O)Oc2cc3ccccc3cc21 (stereo unspecified)
TGI (HT29 colon): > 100 µM | TGI (UO-31 renal): > 100 µM | TGI (786-0 renal): > 100 µM | TGI (NCI-H460 lung): > 100 µM | TGI (ACHN renal): > 100 µM | TGI (SK-MEL-28 melanoma): > 100 µM | TGI (MOLT-4 leukemia): > 100 µM | TGI (UACC-257 melanoma): > 100 µM | TGI (EKVX NSCLC): > 100 µM | TGI (OVCAR-3 ovarian): > 100 µM | TGI (SN12C renal): > 100 µM | TGI (HCC-2998 colon): > 100 µM | TGI (K-562 leukemia): > 100 µM | TGI (M14 melanoma): > 100 µM

COC(=O)c1c(C)cccc1C1CN=NC12Cc1cc(C)cc(C)c1C2=O (stereo unspecified)
TGI (HT29 colon): > 100 µM | TGI (UO-31 renal): > 100 µM | TGI (786-0 renal): > 100 µM | TGI (NCI-H460 lung): > 100 µM | TGI (ACHN renal): > 100 µM | TGI (SK-MEL-28 melanoma): > 100 µM | TGI (MOLT-4 leukemia): > 100 µM | TGI (UACC-257 melanoma): 80.3 µM | TGI (EKVX NSCLC): > 100 µM | TGI (OVCAR-3 ovarian): > 100 µM | TGI (SN12C renal): > 100 µM | TGI (HCC-2998 colon): 68 µM | TGI (K-562 leukemia): > 100 µM | TGI (M14 melanoma): > 100 µM

O=c1[nH]nc(Nc2ccccc2)c2nnn(C3CCCCC3)c12
TGI (HT29 colon): > 100 µM | TGI (UO-31 renal): > 100 µM | TGI (786-0 renal): > 100 µM | TGI (NCI-H460 lung): > 100 µM | TGI (ACHN renal): > 100 µM | TGI (SK-MEL-28 melanoma): > 100 µM | TGI (MOLT-4 leukemia): > 100 µM | TGI (UACC-257 melanoma): > 100 µM | TGI (EKVX NSCLC): > 100 µM | TGI (OVCAR-3 ovarian): > 100 µM | TGI (SN12C renal): > 100 µM | TGI (HCC-2998 colon): > 100 µM | TGI (K-562 leukemia): > 100 µM | TGI (M14 melanoma): > 100 µM

N/C(=N\Nc1ccc(Cl)cc1)c1cnccn1
TGI (HT29 colon): > 100 µM | TGI (UO-31 renal): > 100 µM | TGI (786-0 renal): > 100 µM | TGI (NCI-H460 lung): > 100 µM | TGI (ACHN renal): > 100 µM | TGI (SK-MEL-28 melanoma): > 100 µM | TGI (MOLT-4 leukemia): > 100 µM | TGI (UACC-257 melanoma): > 100 µM | TGI (EKVX NSCLC): > 100 µM | TGI (OVCAR-3 ovarian): > 100 µM | TGI (SN12C renal): > 100 µM | TGI (HCC-2998 colon): 79.1 µM | TGI (K-562 leukemia): > 100 µM | TGI (M14 melanoma): > 100 µM
